One may read the IC50 as the concentration that inhibits the measured activity by half.

Molecules are shown by their SMILES.

Sequence of IDH1 R132H (O75874 whole entry R132H): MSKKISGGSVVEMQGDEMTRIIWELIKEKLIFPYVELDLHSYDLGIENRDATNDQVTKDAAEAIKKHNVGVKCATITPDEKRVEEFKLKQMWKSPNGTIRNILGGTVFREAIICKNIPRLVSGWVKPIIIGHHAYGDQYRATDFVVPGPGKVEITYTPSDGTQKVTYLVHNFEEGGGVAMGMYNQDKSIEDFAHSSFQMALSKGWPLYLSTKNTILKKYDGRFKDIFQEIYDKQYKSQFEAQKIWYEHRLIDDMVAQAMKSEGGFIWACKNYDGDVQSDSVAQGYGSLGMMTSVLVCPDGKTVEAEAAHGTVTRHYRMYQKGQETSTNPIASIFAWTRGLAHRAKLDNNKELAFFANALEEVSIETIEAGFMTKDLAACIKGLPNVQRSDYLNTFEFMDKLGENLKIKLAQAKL

The first assay addresses IDH1 R132H (Homo sapiens, UniProt O75874, R132H). The assay is described as follows: Assay for IDH1 R132H inhibitors (NADPH/aKG, resazurin detection). Type of assay: biochemical. The settings on record: Table 3; enzyme assay, 50 minutes at room temperature; read-out: IC50 (IDH1 R132H Inhibition). In short, it runs like this: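 Read-out is resorufin fluorescence (Ex544/Em590) 5 min after adding a 30 μM resazurin detection mix. Before that, mutant enzyme (0.2 μg/ml in its mix) ran 50 min at room temperature with compound, 8 uM NADPH and 2 mM aKG (mix levels) in Tris pH 7.5 with NaCl, MgCl2, BSA.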
For orientation: The colour change of resazurin is a common sign of viable cells or microbes.
On to `COCCC(=O)N1CCN(c2nc(-c3ccccc3)c(-c3ccccc3)cc2C#N)C[C@H]1C` [Compound 240, (R)-2-(4-(3-methoxypropanoyl)-3-methylpiperazin-1-yl)-5,6-diphenylnicotinonitrile], for which the IC50 fell in the range of 1000 to 5000 nM.

Take `COCCC(=O)N1CCN(c2nc(C3CC3)c(-c3cccc(F)c3)cc2C#N)C[C@H]1C` [Compound 229, (R)-6-cyclopropyl-5-(3-fluorophenyl)-2-(4-(3-methoxypropanoyl)-3-methylpiperazin-1-yl)nicotinonitrile]: the IC50 was at most 1000 nM.

For the molecule `CC(C)c1nc(N2CCN(C(=O)Cc3ccccc3)C(C)C2)c(C#N)cc1-c1ccccc1` (centres unmarked) [Compound 139, 6-isopropyl-2-(3-methyl-4-(2-phenylacetyl)piperazin-1-yl)-5-phenylnicotinonitrile], the IC50 is 1000 to 5000 nM.

In the case of `COCCC(=O)N1CCN(c2nc(C3CC3)c(-c3ccc(F)cc3)c(C)c2C#N)C[C@H]1C` [Compound 241, (R)-6-cyclopropyl-5-(4-fluorophenyl)-2-(4-(3-methoxypropanoyl)-3-methylpiperazin-1-yl)-4-methylnicotinonitrile], the IC50 was at most 1000 nM.

In the case of `COCCC(=O)N1CCN(c2nc(C3CC3)c(-c3ccc(C(F)(F)F)cc3)cc2C#N)C[C@H]1C` [Compound 226, (R)-6-cyclopropyl-2-(4-(3-methoxypropanoyl)-3-methylpiperazin-1-yl)-5-(4-(trifluoromethyl)phenyl)nicotinonitrile], the IC50 was at most 1000 nM.

Consider `COc1cccc(-c2cc(C(C)C)nc(N3CCN(C(=O)c4ccoc4)[C@H](C)C3)c2C#N)c1` [Compound 151, (R)-2-(4-(furan-3-carbonyl)-3-methylpiperazin-1-yl)-6-isopropyl-4-(3-methoxyphenyl)nicotinonitrile], for which the IC50 lay in the range of 1000 to 5000 nM.

As to `CC(C)c1nc(N2CCN(C(=O)c3ccco3)C(C)C2)c(C#N)cc1-c1ccccc1` (centres unmarked) [Compound 119, 2-(4-(furan-2-carbonyl)-3-methylpiperazin-1-yl)-6-isopropyl-5-phenylnicotinonitrile], the IC50 lay within 5000 to 15000 nM.

As to `COCCC(=O)N1CCN(c2nc(C3CC3)c(-c3ccc(F)cc3F)c(C)c2C#N)C[C@H]1C` [Compound 256, 6-cyclopropyl-5-(2,4-difluorophenyl)-2-((R)-4-(3-methoxypropanoyl)-3-methylpiperazin-1-yl)-4-methyl-nicotinonitrile], the IC50 is at most 1000 nM.

As to `CC(C)c1cc(-c2cccc(F)c2)c(C#N)c(N2CCN(C(=O)c3ccco3)CC2)n1` [Compound 114, 4-(3-fluorophenyl)-2-(4-(furan-2-carbonyl)piperazin-1-yl)-6-isopropylnicotinonitrile], the IC50 lay within 1000 to 5000 nM.

As for `CC(C)c1cc(-c2ccccc2)c(C#N)c(N2CCN(C(=O)c3ccco3)C(c3ccccc3)C2)n1` (centres unmarked) [Compound 155, 2-(4-(furan-2-carbonyl)-3-phenylpiperazin-1-yl)-6-isopropyl-4-phenylnicotinonitrile], the IC50 lay in the range of 5000 to 15000 nM.

As for `COCCC(=O)N1CCN(c2nc(C3CC3)c(-c3ccc(C)c(F)c3)cc2C#N)C[C@H]1C` [Compound 235, (R)-6-cyclopropyl-5-(3-fluoro-4-methylphenyl)-2-(4-(3-methoxypropanoyl)-3-methylpiperazin-1-yl)nicotinonitrile], the IC50 was at most 1000 nM.

On to `COCCC(=O)N1CCN(c2nc(C(C)C)c(-c3ccc(C)c(F)c3)cc2C#N)C[C@H]1C` [Compound 221, (R)-5-(3-fluoro-4-methylphenyl)-6-isopropyl-2-(4-(3-methoxypropanoyl)-3-methylpiperazin-1-yl)nicotinonitrile], for which the IC50 was in the range of 1000 to 5000 nM.

For `N#Cc1c(-c2ccccc2)cc(C2CCCCC2)nc1N1CCN(C(=O)c2ccco2)CC1` [Compound 137, 6-cyclohexyl-2-(4-(furan-2-carbonyl)piperazin-1-yl)-4-phenylnicotinonitrile], the IC50 lay in the range of 5000 to 15000 nM.

Staying with this assay, now noted: enzyme assay of Example 12; read-out: IDH1R132H IC50.
Turning to `COCCC(=O)N1CCN(c2nc(C3CC3)c(N(C)c3ccnc(Cl)c3)cc2C#N)C[C@H]1C` [Compound 699, (R)-5-((2-chloropyridin-4-yl)(methyl)amino)-6-cyclopropyl-2-(4-(3-methoxypropanoyl)-3-methylpiperazin-1-yl)nicotinonitrile], the IC50 was below 500 nM.

With `COCCC(=O)N1CCN(c2nc(C3CC3)c(-c3cccc(NS(=O)(=O)CCl)c3)cc2C#N)C[C@H]1C` [Compound 404, (R)-1-chloro-N-(3-(5-cyano-2-cyclopropyl-6-(4-(3-methoxypropanoyl)-3-methylpiperazin-1-yl)pyridin-3-yl)phenyl)methanesulfonamide], the IC50 is 500 to 1000 nM.

`COCCC(=O)N1CCN(c2nc(C3CC3)c(-c3ccccc3CO)cc2C#N)C[C@H]1C` [Compound 344, (R)-6-cyclopropyl-5-(2-hydroxymethyl-phenyl)-2-[4-(3-methoxy-propionyl)-3-methyl-piperazin-1-yl]-nicotinonitrile]: the IC50 is 500 to 1000 nM.

Regarding `CNC(=O)c1cccc(-c2c(C3CC3)nc(N3CCN(C(=O)CCOC)[C@H](C)C3)c(C#N)c2C)c1` [Compound 327, (R)-3-{5-cyano-2-cyclopropyl-6-[4-(3-methoxy-propionyl)-3-methyl-piperazin-1-yl]-4-methyl-pyridin-3-yl}-N-methyl-benzamide], the 50% inhibitory concentration (IC50) was in the range of 500 to 1000 nM.

Regarding `COCCC(=O)N1CCN(c2nc(C3CC3)c(-c3ccc(N)nc3)cc2C#N)C[C@H]1C` [Compound 314, (R)-6′-amino-2-cyclopropyl-6-(4-(3-methoxypropanoyl)-3-methylpiperazin-1-yl)-3,3′-bipyridine-5-carbonitrile], the IC50 fell in the range of 500 to 1000 nM.

For the molecule `N#Cc1cc(-c2cnnc(O)c2)c(C2CC2)nc1N1CCN(C(=O)C2CC2)[C@H](C2CC2)C1` [Compound 616, (R)-2-(4-(cyclopropanecarbonyl)-3-cyclopropylpiperazin-1-yl)-6-cyclopropyl-5-(6-hydroxypyridazin-4-yl)nicotinonitrile], the IC50 was below 500 nM.

Take `C=CC(=O)N1CC=C(c2cc(C#N)c(N3CCN(C(=O)C4CC4)[C@H](C)C3)nc2C2CC2)CC1` [Compound 630, (R)-5-(1-acryloyl-1,2,3,6-tetrahydropyridin-4-yl)-2-(4-(cyclopropanecarbonyl)-3-methylpiperazin-1-yl)-6-cyclopropylnicotinonitrile]: the IC50 lay within 500 to 1000 nM.

As to `N#Cc1cc(-c2cccc3c2CNC3=O)c(C2CC2)nc1N1CCN(C(=O)C2CC2)[C@H](C2CC2)C1` [Compound 464, (R)-2-(4-(Cyclopropanecarbonyl)-3-cyclopropylpiperazin-1-yl)-6-cyclopropyl-5-(1-oxoisoindolin-4-yl)nicotinonitrile], the IC50 was 500 to 1000 nM.

`N#Cc1cc(-c2cc(C#N)c(N3CCN(C(=O)C4CC4)[C@H](C4CC4)C3)nc2C2CC2)cnn1` [Compound 641, (R)-5-(5-cyano-6-(4-(cyclopropanecarbonyl)-3-cyclopropylpiperazin-1-yl)-2-cyclopropylpyridin-3-yl)pyridazine-3-carbonitrile]: the IC50 was below 500 nM.

`COCCC(=O)N1CCN(c2nc(C3CC3)c(N3CCN(C(=O)c4ccccc4)CC3)cc2C#N)C[C@H]1C` [Compound 379, (R)-5-(4-benzoylpiperazin-1-yl)-6-cyclopropyl-2-(4-(3-methoxypropanoyl)-3-methylpiperazin-1-yl)nicotinonitrile]: the IC50 fell in the range of 500 to 1000 nM.
